From ChEMBL document CHEMBL3885861, “Open TG-GATES”

Species: Rattus norvegicus
Test: Open TG-GATES - Regimen: Daily Repeat
Type: toxicity, organism-based, Sprague-Dawley
Set-up: regimen Daily Repeat, gender Male, age 6 weeks
Settings: in vivo, po, route gavage; for APTT / Bas / Eos / Fbg / Hb / Ht / Lym / MCH / MCHC / MCV / Mono / Neu / PT / Plat / RBC / Ret / WBC: tissue Blood; for KIDNEY_L / KIDNEY_R / KIDNEY_TOTAL: tissue Kidney; for LIVER: tissue Liver; for ALP / ALT / BUN / CRE / Ca / DBIL / GLC / K / LDH / Na / PL / RALB / TBIL / TC / TG / TP / gamma-GTP / AST: tissue Plasma
[1] = 60 mg/kg, 72 h, dose level Middle, time 3 day
[2] = 60 mg/kg, […], dose level Middle, time 7 day
[3] = 60 mg/kg, […], dose level Middle, time 14 day
[4] = 60 mg/kg, […], dose level Middle, time 28 day

CCCCc1oc2ccccc2c1C(=O)c1cc(I)c(OCCN(CC)CC)c(I)c1 [AMIODARONE] gave a TERMINAL_BW [1] of 226.1 g, an APTT [1] of 18.2 s and a Bas [1] of 0%. For the same molecule, the Eos [1] was 1.2%, the Fbg [1] was 225.8 mg/dL and the Hb [1] was 13.5 g/dL. The Ht [1] was 39.6%, the Lym [1] was 79.2% and the MCH [1] was 21.1 pg. For the same molecule, the MCHC [1] was 34.1%, the MCV [1] was 62.1 fL and the Mono [1] was 2.6%. For the same molecule, the Neu [1] was 15.8%, the PT [1] was 12.8 s and the Plat [1] was 127.1 x10_4/uL. The RBC [1] was 637.8 x10_4/ul, the Ret [1] was 5.5% and the WBC [1] was 99.3 x10_2/uL. For the same molecule, the KIDNEY_L [1] was 1 g, the KIDNEY_R [1] was 1 g and the KIDNEY_TOTAL [1] was 2.1 g. The LIVER [1] was 11 g, the ALP [1] was 1120.2 IU/L and the ALT [1] was 37.8 IU/L. The BUN [1] was 16 mg/dL, the CRE [1] was 0.3 mg/dL and the Ca [1] was 10.7 mg/dL. The DBIL [1] was 0.096 mg/dL, the GLC [1] was 196.6 mg/dL and the K [1] was 3.8 meq/L. It also gave an LDH [1] of 194.6 IU/L, a Na [1] of 140.8 meq/L and a PL [1] of 147 mg/dL. For the same molecule, the RALB [1] was 3.4 g/dL, the TBIL [1] was 0.1 mg/dL and the TC [1] was 73.8 mg/dL. The TG [1] was 101.8 mg/dL, the TP [1] was 5.5 g/dL and the gamma-GTP [1] was 1 IU/L. It also gave a TERMINAL_BW [2] of 259.8 g, a TERMINAL_BW [3] of 302.6 g and a TERMINAL_BW [4] of 385.9 g. For the same molecule, the APTT [2] was 17.9 s, the Bas [2] was 0% and the Eos [2] was 1%. It also gave a Fbg [2] of 216.8 mg/dL, a Hb [2] of 13 g/dL and a Lym [2] of 76.2%. The MCH [2] was 20.9 pg, the MCHC [2] was 34.1% and the Mono [2] was 3.2%. The Neu [2] was 18.6%, the PT [2] was 12.3 s and the Plat [2] was 132.6 x10_4/uL. The RBC [2] was 622.6 x10_4/ul, the Ret [2] was 5.4% and the WBC [2] was 103.2 x10_2/uL. For the same molecule, the APTT [3] was 20.8 s, the Bas [3] was 0% and the Eos [3] was 0.4%. For the same molecule, the Fbg [3] was 214.4 mg/dL, the Hb [3] was 14.4 g/dL and the Ht [3] was 41.1%. It also gave a Lym [3] of 79%, an MCH [3] of 20.9 pg and an MCHC [3] of 35%. For the same molecule, the MCV [3] was 59.7 fL, the Mono [3] was 2.2% and the Neu [3] was 17.4%. The Plat [3] was 115.4 x10_4/uL, the RBC [3] was 688.2 x10_4/ul and the Ret [3] was 4.3%. It also gave a WBC [3] of 115.1 x10_2/uL, an APTT [4] of 20.6 s and a Bas [4] of 0%. The Eos [4] was 1%, the Fbg [4] was 218.6 mg/dL and the Ht [4] was 42.1%. The Lym [4] was 78.2%, the MCH [4] was 19.7 pg and the MCHC [4] was 35%. For the same molecule, the MCV [4] was 56.3 fL, the Mono [4] was 2.6% and the Neu [4] was 17%. It also gave a Plat [4] of 111.2 x10_4/uL, an RBC [4] of 748.8 x10_4/ul and a Ret [4] of 2.8%. For the same molecule, the WBC [4] was 115.2 x10_2/uL, the KIDNEY_L [2] was 1.2 g and the KIDNEY_R [2] was 1.1 g. For the same molecule, the KIDNEY_TOTAL [2] was 2.3 g, the KIDNEY_L [3] was 1.2 g and the KIDNEY_R [3] was 1.2 g. For the same molecule, the KIDNEY_TOTAL [3] was 2.3 g, the KIDNEY_L [4] was 1.3 g and the KIDNEY_R [4] was 1.3 g. It also gave a KIDNEY_TOTAL [4] of 2.7 g, an LIVER [3] of 13.8 g and an LIVER [4] of 16.9 g. It also gave an ALP [2] of 981 IU/L, an ALT [2] of 34.8 IU/L and an AST [2] of 60 IU/L. The BUN [2] was 17.4 mg/dL, the CRE [2] was 0.3 mg/dL and the Ca [2] was 10.5 mg/dL. The DBIL [2] was 0.1 mg/dL, the GLC [2] was 208 mg/dL and the K [2] was 4 meq/L. For the same molecule, the LDH [2] was 174.8 IU/L, the Na [2] was 140.2 meq/L and the PL [2] was 166.8 mg/dL. For the same molecule, the RALB [2] was 3.3 g/dL, the TBIL [2] was 0.2 mg/dL and the TC [2] was 90.8 mg/dL. For the same molecule, the TG [2] was 98.6 mg/dL, the TP [2] was 5.5 g/dL and the gamma-GTP [2] was 0.8 IU/L. For the same molecule, the ALP [3] was 996.2 IU/L, the ALT [3] was 41.4 IU/L and the AST [3] was 64.6 IU/L. For the same molecule, the BUN [3] was 16.6 mg/dL, the CRE [3] was 0.4 mg/dL and the Ca [3] was 10.6 mg/dL. For the same molecule, the DBIL [3] was 0.086 mg/dL, the GLC [3] was 224.6 mg/dL and the K [3] was 3.5 meq/L. For the same molecule, the LDH [3] was 174.6 IU/L, the Na [3] was 140.4 meq/L and the PL [3] was 171.6 mg/dL. It also gave an RALB [3] of 3.4 g/dL, a TBIL [3] of 0.1 mg/dL and a TC [3] of 90.4 mg/dL. The TG [3] was 102 mg/dL, the TP [3] was 5.9 g/dL and the gamma-GTP [3] was 1.8 IU/L. The ALP [4] was 803.2 IU/L, the ALT [4] was 34.4 IU/L and the AST [4] was 56.4 IU/L. The BUN [4] was 18 mg/dL, the CRE [4] was 0.5 mg/dL and the Ca [4] was 10.4 mg/dL. For the same molecule, the DBIL [4] was 0.098 mg/dL, the GLC [4] was 192.6 mg/dL and the K [4] was 3.7 meq/L. The LDH [4] was 152.6 IU/L, the Na [4] was 141 meq/L and the PL [4] was 167.2 mg/dL. The RALB [4] was 3.3 g/dL, the TBIL [4] was 0.2 mg/dL and the TC [4] was 86.6 mg/dL. The TG [4] was 120 mg/dL, the TP [4] was 6 g/dL and the gamma-GTP [4] was 1.6 IU/L. The TERMINAL_BW (200 mg/kg, 72 h, dose level High, time 3 day) was 204.2 g.
